Assay results: patent US12157732B2, “eIF4E inhibitors and uses thereof” (PIC Therapeutics, Inc., priority 2021, dated 2024)

What follows are compounds tested against T1, Human eIF4E (aa 28-217) / biotin labeled 4G2 peptide (Homo sapiens, UniProt P06730) (assay: Human eIF4E/4G2 binding assay (TR-FRET)). Conditions: TR-FRET eIF4E/4G2 peptide binding; 4 hours preincubation with eIF4E at room temperature.
T1 construct: Human eIF4E (aa 28-217) with a C-terminal His-tag; made in house
Method: Example 3. Compound Testing in Human eIF4E/4G2 Binding Assay
Human eIF4E (aa 28-217) with a C-terminal His-tag was expressed in E. coli in inclusion bodies. The protein was solubilized with 8 M urea and purified under denaturing conditions using nickel-charged HisTrap HP columns (GE Healthcare). The purified protein was then refolded by diluting in 20 mM Hepes pH 7.0, 0.5 M NaCl, 1 mM DTT, 1 mM EDTA, 0.5 M arginine plus 6 M urea, and then dialyzing overnight into the same buffer without the urea. The protein was further dialyzed into 20 mM Hepes, pH 6.5, 50 mM NaCl, 1 mM EDTA, 1 mM DTT, and concentrated using Hitrap SP sepharose FF columns (GE Healthcare). The concentrated protein was dialyzed into 20 mM Hepes, pH 7.0, 0.5M NaCl, 5 mM DTT and 10% glycerol, and stored at −80° C. until use.
Test compounds (3.43 mM stock in DMSO) were diluted 2-fold in series in DMSO (10 concentration points). Compound solutions (1.2 μl/well) were added into black 384-well polypropylene microplates (Matrix, Thermal Scientific). Twenty-two microliters per well of Assay Buffer (50 mM NaPi, pH 6.5, 50 mM KCl, 1 mM DTT and 0.5 mg/ml gamma globulin) and eight microliters per well of 82.5 nM purified eIF4E in Assay Buffer were added. The samples were incubated at room temperature (20-23° C.) for 4 hours. Biotin labeled 4G2 peptide (Ac-Lys-Gln-Tyr-Asp-Arg-Glu-Phe-Leu-Leu-Asp-Phe-Gln-Phe-Met-Pro-Lys(Aha-Bio)-NH2, 1.75 μM stock in DMSO) was diluted to 0.14 μM in Assay Buffer (without DTT) and 5 μl/well was added. The samples were incubated at room temperature for 20 min. Five microliters per well of 6.4 nM Eu-streptavidin (Eu-SA, Perkin Elmer) and 80 nM Allophycocyanin (APC)-anti His antibody (Columbia Biosciences) in Assay Buffer (without DTT) were then added and the samples were incubated at room temperature for 20 min.
Assay signals were monitored by reading excitation at 340 nm and emission fluorescence at 615 nm and 665 nm on an Envision reader (Perkin Elmer). Normalized TR-FRET (time-resolved fluorescence resonance energy transfer) assay signal (Rn) was calculated by the formula: Rn=[(A−Ba−C×D)/(D−Bd)]×(Dc−Bd) Where A is the fluorescence intensity of the sample at 665 nm, D is the fluorescence intensity of the sample at 615 nm, Ba and Bd are plate backgrounds at 665 nm and 615 nm, respectively, Dc is the fluorescence intensity of 0.78 nM Eu-SA in the assay buffer at 615 nm The cross-talk factor (C) is determined by the following formula: C=(Ac−Ba)/(Dc−Bd) Where Ac is the fluorescence intensity of 0.78 nM Eu-SA in the assay buffer at 665 nm.
IC50 values were calculated using xLFit program (IDBS). Table 3 below lists IC50 of some compounds, wherein A represents IC50<0.5 μM; B represents 500 nM<IC50<1 μM; and C represents IC50>1 μM.

T1 sequence (P06730 28-217): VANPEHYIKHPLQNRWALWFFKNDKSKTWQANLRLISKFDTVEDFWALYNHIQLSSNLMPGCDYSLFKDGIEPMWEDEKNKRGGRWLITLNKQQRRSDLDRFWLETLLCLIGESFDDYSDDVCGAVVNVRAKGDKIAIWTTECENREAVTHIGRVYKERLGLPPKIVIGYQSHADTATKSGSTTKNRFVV

| SMILES | IC50 |
| --- | --- |
| COc1cc(Cl)ccc1-c1sc(Nc2ncc(C(F)(F)F)cc2C(=O)O)nc1C(C)C [I-40] | 500 to 1000 nM |
| COc1ccc(-c2sc(Nc3ncc(-c4cccs4)cc3C(=O)O)nc2C(C)C)cc1Cl [I-50] | 500 to 1000 nM |
| CC(C)c1nc(Nc2ncc(C(F)(F)F)cc2C(=O)O)sc1-c1ccccn1 [I-46, 2-(4-isopropyl-5-(pyridin-2-yl)thiazol-2-ylamino)-5-(trifluoromethyl)nicotinic acid] | > 1000 nM |
| CC(C)CCc1nc(Nc2ncc(C(F)(F)F)cc2C(=O)O)sc1-c1ccc(N2CCOCC2)cc1 [I-16, 2-(4-Isopentyl-5-(4-Morpholinophenyl)Thiazol-2-Ylamino)-5-(trifluoromethyl)nicotinic acid] | > 1000 nM |
| CC(C)c1nc(Nc2ncc(-c3ccccc3)cc2C(=O)O)sc1C1=CCCCC1 [I-27, 2-(5-cyclohexenyl-4-isopropylthiazol-2-ylamino)-5-phenylnicotinic acid] | 500 to 1000 nM |
| CC(C)c1ccc(-c2sc(Nc3ncc(C(F)(F)F)cc3C(=O)O)nc2C(C)C)cc1 [I-34] | 500 to 1000 nM |
| COc1ccc(-c2sc(Nc3ncc(C(F)(F)F)cc3C(=O)O)nc2C(C)C)c(OC)c1 [I-47] | > 1000 nM |
| CC(C)c1nc(Nc2ncc(C(F)(F)F)cc2C(=O)O)sc1-c1ccsc1 [I-22] | 500 to 1000 nM |
| COc1ccc(-c2sc(Nc3ncc(C(F)(F)F)cc3C(=O)O)nc2C(C)C)cc1Cl [I-51] | 500 to 1000 nM |
| COc1cc(-c2sc(Nc3ncc(-c4cccs4)cc3C(=O)O)nc2CC(C)C)ccc1F [I-55] | 500 to 1000 nM |
| COc1ccc(-c2sc(Nc3ncc(-c4cccs4)cc3C(=O)O)nc2C)cc1Cl [I-53] | 500 to 1000 nM |
| CC(C)c1nc(Nc2ncc(C(F)(F)F)cc2C(=O)O)sc1-c1ccc(C(F)(F)F)cc1Cl [I-33] | 500 to 1000 nM |
| COc1ccc(-c2sc(Nc3ncc(C(F)(F)F)cc3C(=O)O)nc2C(C)C)cc1OC [I-42] | > 1000 nM |
| CC(C)c1nc(Nc2ncc(C(F)(F)F)cc2C(=O)O)sc1-c1ccc(Cl)s1 [I-48] | 500 to 1000 nM |
| CC(C)c1nc(Nc2ncc(C(F)(F)F)cc2C(=O)O)sc1C1=CCCCC1 [I-23] | 500 to 1000 nM |
| CC(C)c1nc(Nc2ncc(C(F)(F)F)cc2C(=O)O)sc1-c1ccc2ccccc2c1 [I-19] | 500 to 1000 nM |
| CC(C)c1nc(Nc2ncc(C(F)(F)F)cc2C(=O)O)sc1-c1ccc(Cl)cc1F [I-37, 2-(5-(4-chloro-2-fluorophenyl)-4-isopropylthiazol-2-ylamino)-5-(trifluoromethyl)nicotinic acid] | 500 to 1000 nM |
| CC(C)c1nc(Nc2ncc(C(F)(F)F)cc2C(=O)O)sc1-c1ccc(Cl)cc1Cl [I-31, 2-(5-(2,4-dichlorophenyl)-4-isopropylthiazol-2-ylamino)-5-(trifluoromethyl)nicotinic acid] | 500 to 1000 nM |
| COc1ccc(-c2sc(Nc3ncc(C(F)(F)F)cc3C(=O)O)nc2C(C)C)cc1F [I-43] | 500 to 1000 nM |
| COc1ccc(-c2sc(Nc3ncc(C(F)(F)F)cc3C(=O)O)nc2C(C)C)cc1 [I-41] | 500 to 1000 nM |
| CC(C)c1nc(Nc2ncc(C(F)(F)F)cc2C(=O)O)sc1-c1ccc(F)cc1F [I-36] | 500 to 1000 nM |
| CC(C)c1nc(Nc2ncc(C(F)(F)F)cc2C(=O)O)sc1-c1ccc(OC(F)F)cc1 [I-44] | 500 to 1000 nM |
| CC(C)c1nc(Nc2ncc(C(F)(F)F)cc2C(=O)O)sc1-c1cccs1 [I-21] | 500 to 1000 nM |
| CC(C)c1nc(Nc2ncc(C(F)(F)F)cc2C(=O)O)sc1-c1ccc(C(F)(F)F)cc1 [I-25] | 500 to 1000 nM |
| CC(C)c1nc(Nc2ncc(C(F)(F)F)cc2C(=O)O)sc1-c1cccc2ccccc12 [I-20] | 500 to 1000 nM |
| CC(C)CCc1nc(Nc2ncc(-c3cccs3)cc2C(=O)O)sc1-c1ccc(S(C)(=O)=O)cc1 [I-9] | 500 to 1000 nM |

Second part, the compound after the results:

| IC50 | SMILES |
| --- | --- |
| < 500 nM | CC(C)CCc1nc(Nc2ncc(-c3cccs3)cc2C(=O)O)sc1-c1ccc(Cl)c(Cl)c1 [I-3] |
| 500 to 1000 nM | CC(C)c1nc(Nc2ncc(C(F)(F)F)cc2C(=O)O)sc1-c1csc2ccccc12 [I-32, 2-(5-(benzo[b]thiophen-3-yl)-4-isopropylthiazol-2-ylamino)-5-(trifluoromethyl)nicotinic acid] |
| < 500 nM | CC(C)CCc1nc(Nc2cc(-c3ccccc3)sc2C(=O)O)sc1-c1ccc(Cl)c(Cl)c1 [I-6] |
| < 500 nM | COc1ccc(-c2sc(Nc3ncc(-c4cccs4)cc3C(=O)O)nc2C2CC2)cc1 [I-54] |
| 500 to 1000 nM | CC(C)CCc1nc(Nc2ncc(C(F)(F)F)cc2C(=O)O)sc1-c1ccc(S(C)(=O)=O)cc1 [I-10] |
| < 500 nM | COc1ccc(-c2sc(Nc3ncc(-c4cccs4)cc3C(=O)O)nc2C2CC2)cc1Cl [I-52, 2-((5-(3-chloro-4-methoxyphenyl)-4-cyclopropylthiazol-2-yl)amino)-5-(thiophen-2-yl)nicotinic acid] |
| < 500 nM | CC(C)CCc1nc(Nc2cc(C3CCCC3)sc2C(=O)O)sc1-c1ccc(Oc2ccccc2)cc1 [I-12] |
| < 500 nM | CC(C)CCc1nc(Nc2ncc(-c3cccs3)cc2C(=O)O)sc1-c1ccccc1 [I-8] |
| < 500 nM | CC(C)CCc1nc(Nc2ncc(C(F)(F)F)cc2C(=O)O)sc1-c1ccc(Cl)c(Cl)c1 [I-4] |
| < 500 nM | CC(C)CCc1nc(Nc2cc(C3CCCC3)sc2C(=O)O)sc1-c1ccc(Cl)c(Cl)c1 [I-11] |
| < 500 nM | CC(C)CCc1nc(Nc2ncccc2C(=O)O)sc1-c1ccc(Cl)c(Cl)c1 [I-7] |
| < 500 nM | CC(C)CCc1nc(Nc2ncc(C(F)(F)F)cc2C(=O)O)sc1-c1ccc(-c2ccccn2)cc1 [I-15] |
| < 500 nM | CC(C)c1nc(Nc2ncc(C(F)(F)F)cc2C(=O)O)sc1-c1ccc(Cl)c(Cl)c1 [I-1, 2-(5-(3,4-Dichlorophenyl)-4-Isopropylthiazol-2-Ylamino)-5-(trifluoromethyl)nicotinic acid] |
| < 500 nM | CC(C)c1nc(Nc2ncc(C(F)(F)F)cc2C(=O)O)sc1-c1ccc(-c2cccs2)cc1 [I-24, 2-(4-Isopropyl-5-(4-(Thiophen-2-Yl)Phenyl)Thiazol-2-Ylamino)-5-(trifluoromethyl)nicotinic acid] |
| < 500 nM | CC(C)CCc1nc(Nc2ncc(-c3cccs3)cc2C(=O)O)sc1-c1ccc(Oc2ccccc2)cc1 [I-14] |
| < 500 nM | CC(C)c1nc(Nc2ncc(-c3cccs3)cc2C(=O)O)sc1-c1ccc(Cl)c(Cl)c1 [I-2, 2-(5-(3,4-Dichlorophenyl)-4-Isopropylthiazol-2-Ylamino)-5-(Thiophen-2-yl)nicotinic acid] |
| < 500 nM | CC(C)c1nc(Nc2ncc(C(F)(F)F)cc2C(=O)O)sc1-c1ccc(C(C)(C)C)cc1 [I-35] |
| < 500 nM | CC(C)c1nc(Nc2ncc(C(F)(F)F)cc2C(=O)O)sc1-c1ccc(-c2ccccc2)s1 [I-49] |
| < 500 nM | CC(C)CCc1nc(Nc2cc(C3CCCC3)sc2C(=O)O)sc1-c1ccc(OC(F)(F)F)cc1 [I-18] |
| < 500 nM | CC(C)CCc1nc(Nc2cc(C3CCCC3)sc2C(=O)O)sc1-c1ccc(-n2ccccc2=O)cc1 [I-13] |
| < 500 nM | CC(C)c1nc(Nc2ncc(C(F)(F)F)cc2C(=O)O)sc1-c1ccc(-c2ccccc2)cc1 [I-38] |
| < 500 nM | CC(C)c1nc(Nc2ncc(C(F)(F)F)cc2C(=O)O)sc1-c1ccc(C(F)(F)F)c(F)c1 [I-39] |
| < 500 nM | CC(C)CCc1nc(Nc2ccsc2C(=O)O)sc1-c1ccc(Cl)c(Cl)c1 [I-5] |
| < 500 nM | CC(C)Cc1nc(Nc2ncc(C(F)(F)F)cc2C(=O)O)sc1-c1ccc2ccccc2c1 [I-30] |
| < 500 nM | CC(C)c1nc(Nc2ncc(C(F)(F)F)cc2C(=O)O)sc1-c1ccc(OCc2ccccc2)cc1 [I-45] |
| < 500 nM | CC(C)CCc1nc(Nc2ncc(-c3cccs3)cc2C(=O)O)sc1-c1ccc(OC(F)(F)F)cc1 [I-17] |
